≈ marks a conversion by molar mass, not a printed value.
tested on: T. cruzi Tulahuen strain C2C4; assay: Activity against T. cruzi (beta-galactosidase expressing parasites in L-6 cells); format: cell-based, Trypanosoma cruzi; details: Trypanosoma cruzi, TULAHUEN, L6, Benznidazole used as control, same assay; read-out: IC50 of control
Experimental: Activity against T. cruzi. Rat skeletal myoblasts (L-6 cells) were seeded in 96-well microtitre plates at 2000 cells/well in 100 μL RPMI 1640 medium with 10% FBS and 2 mM 1-glutamine. After 24 h the medium was removed and replaced by 100 μl per well containing 5000 trypomastigote forms of T. cruzi Tulahuen strain C2C4 containing the […] (Lac Z) gene (Buckner et al. 1996). After 48 h the medium was removed from the wells and replaced by 100 μl fresh medium with or without a serial drug dilution of eleven 3-fold dilution steps covering a range from 100 to 0.002 μg/ml. After 96 h of incubation the plates were inspected under an inverted microscope to assure growth of the controls and sterility. Then the substrate CPRG/Nonidet (50 μl) was added to all wells. A color reaction developed within 2-6 h and could be read photometrically at 540 nm. Data were analyzed with the graphic programme Softmax Pro (Molecular Devices), which calculated IC50 values by linear regression (Huber 1993) from the sigmoidal dose inhibition curves. Benznidazole is used as control (IC50 0.5±0.2 ug/ml). • Buckner, F. S., C. L. Verlinde, A. C. La Flamme, and W. C. Van Voorhis. 1996. Efficient technique for screening drugs for activity against Trypanosoma cruzi using parasites expressing beta-galactosidase, p. 2592-2597, vol. 40. • Huber, W. Koella, J. C. 1993. A comparison of the three methods of estimating EC50 in studies of drug resistance of malaria parasites. Acta Trop. 55, 257-261.

Row | SMILES | IC50 [µg/mL]
1 | O=C(Cn1ccnc1[N+](=O)[O-])NCc1ccccc1 [Benznidazole, reference compound] | 0.5 ± 0.2 (≈ 1.92 µM)

same assay, conditions: Trypanosoma cruzi, TULAHUEN, L6, in Rattus norvegicus, 96 h, read-out: Activity (IC50)

Row | SMILES | IC50 [µg/mL]
2 | CC(=O)Nc1ccc2[nH]c(=O)n(Cc3cccc(C(F)(F)F)c3)c(=O)c2c1 [Example 43, N-(2,4-dioxo-3-(3-(trifluoromethyl)benzyl)-1,2,3,4-tetrahydroquinazolin-6-yl)acetamide] | 0.804 (≈ 2.13 µM)

same assay, conditions: Trypanosoma cruzi, TULAHUEN, L6, in Rattus norvegicus, 96 h, trypomastigotes in rat skeletal myoblasts (L-6 cells), 96 h incubation, CPRG/Nonidet read at 540 nm; read-out: Activity (IC50)

Row | SMILES | IC50 [µg/mL]
3 | CC(=O)Nc1ccc2[nH]c(=O)n([C@H]3CC[C@@H](C(C)(C)C)CC3)c(=O)c2c1 [Example 50, N-(3-((1s,4s)-4-(Tert-butyl)cyclohexyl)-2,4-dioxo-1,2,3,4-tetrahydroquinazolin-6-yl)acetamide] | 0.005 (≈ 0.014 µM)
4 | CC(=O)Nc1ccc2[nH]c(=O)n([C@H]3CCO[C@@H](C(C)(C)C)C3)c(=O)c2c1 [Example 61, N-(3-((2R,4S)-2-(Tert-butyl)tetrahydro-2H-pyran-4-yl)-2,4-dioxo-1,2,3,4-tetrahydroquinazolin-6-yl)acetamide] | 0.744 (≈ 2.07 µM)
5 | CCC[C@H]1CC[C@@H](n2c(=O)[nH]c3ccc(NC(C)=O)cc3c2=O)CC1 [Example 57, N-(2,4-Dioxo-3-((1r,4s)-4-propylcyclohexyl)-1,2,3,4-tetrahydroquinazolin-6-yl)acetamide] | 0.06 (≈ 0.175 µM)
6 | CCC1CCC(n2c(=O)[nH]c3ncc(NC(C)=O)cc3c2=O)CC1 (stereo not drawn) [Example 35, N-[3-(trans-4-ethyl-cyclohexyl)-2,4-dioxo-1,2,3,4-tetrahydro-pyrido[2,3-d]pyhmidin-6-yl]-acetamide] | 0.1 (≈ 0.303 µM)
7 | CC[C@H]1CC[C@@H](n2c(=O)[nH]c3ccc(NC(C)=O)cc3c2=O)CC1 [Example 55, N-(3-((1s,4s)-4-Ethylcyclohexyl)-2,4-dioxo-1,2,3,4-tetrahydroquinazolin-6-yl)acetamide] | 0.3 (≈ 0.911 µM)
8 | CC(C)(C)[C@H]1CC[C@@H](n2c(=O)[nH]c3ccc(N)cc3c2=O)CC1 [23b (cis), 6-amino-3-(cis-4-tert-butyl-cyclohexyl)-1H-quinazoline-2,4-dione] | 0.007 (≈ 0.0222 µM)
9 | CCC1CCC(n2c(=O)[nH]c3ccc(N)cc3c2=O)CC1 (racemic) [24 (rac), 6-Amino-3-(4-ethyl-cyclohexyl)-1H-quinazoline-2,4-dione] | 0.022 (≈ 0.0766 µM)
10 | CC(=O)Nc1ccc2[nH]c(=O)n(C3C4CC5CC(C4)CC3C5)c(=O)c2c1 (stereo not drawn) [Example 51, N-(3-((1r,3r,5r,7r)-adamantan-2-yl)-2,4-dioxo-1,2,3,4-tetrahydroquinazolin-6-yl)acetamide] | 0.178 (≈ 0.504 µM)
11 | CC(=O)Nc1ccc2[nH]c(=O)n(CCCC3CCCCC3)c(=O)c2c1 [Example 5, N-[3-(3-Cyclohexyl-propyl)-2,4-dioxo-1,2,3,4-tetrahydro-quinazolin-6-yl]-acetamide] | 0.163 (≈ 0.475 µM)
12 | CC(=O)Nc1ccc2[nH]c(=O)n(CCC(C)C)c(=O)c2c1 [Example 4, N-(3-Isopentyl-2,4-dioxo-1,2,3,4-tetrahydroquinazolin-6-yl)acetamide] | 2.81 (≈ 9.71 µM)
13 | CC(=O)Nc1ccc2[nH]c(=O)n(C3CCC(C(C)(C)C)C3)c(=O)c2c1 (stereo not drawn) [Example 60, N-(3-(3-(Tert-butyl)cyclopentyl)-2,4-dioxo-1,2,3,4-tetrahydroquinazolin-6-yl)acetamide] | 0.007 (≈ 0.0204 µM)
14 | CC[C@H]1CC[C@H](n2c(=O)[nH]c3ccc(NC(C)=O)cc3c2=O)CC1 [Example 56, N-(3-((1r,4r)-4-Ethylcyclohexyl)-2,4-dioxo-1,2,3,4-tetrahydroquinazolin-6-yl)acetamide] | 0.015 (≈ 0.0455 µM)
15 | CC(=O)Nc1ccc2[nH]c(=O)n([C@H]3CC[C@H](C(C)(C)F)CC3)c(=O)c2c1 [Example 62, N-(3-((1r,4r)-4-(2-Fluoropropan-2-yl)cyclohexyl)-2,4-dioxo-1,2,3,4-tetrahydroquinazolin-6-yl)acetamide] | 0.933 (≈ 2.58 µM)
16 | CC(=O)Nc1ccc2[nH]c(=O)n(CCCc3ccc(F)cc3)c(=O)c2c1 [Example 44, N-(3-(3-(4-fluorophenyl)propyl)-2,4-dioxo-1,2,3,4-tetrahydroquinazolin-6-yl)acetamide] | 0.943 (≈ 2.65 µM)
17 | O=c1[nH]c2ccc(-c3cccnc3)cc2c(=O)n1CCC1CCCCC1 [Example 17, 3-(2-Cyclohexylethyl)-6-(pyridin-3-yl)quinazoline-2,4(1H,3H)-dione] | 0.655 (≈ 1.87 µM)
18 | COCCn1c(=O)[nH]c2ccc(NC(C)=O)cc2c1=O [Example 6, N-(3-(2-methoxyethyl)-2,4-dioxo-1,2,3,4-tetrahydroquinazolin-6-yl)acetamide] | 9.62 (≈ 34.7 µM)
19 | CC(=O)Nc1ccc2[nH]c(=O)n([C@H]3CC[C@H](C(F)(F)F)CC3)c(=O)c2c1 [Example 53, N-(2,4-dioxo-3-((1r,4r)-4-(trifluoromethyl)cyclohexyl)-1,2,3,4-tetrahydroquinazolin-6-yl)acetamide] | 0.13 (≈ 0.352 µM)

Row | SMILES | IC50 [µg/mL]
20 | CC(C)(C)C1CCC(n2c(=O)[nH]c3ccc(N)cc3c2=O)CC1 (racemic) [23b (rac), 6-amino-3-(4-tert-butyl-cyclohexyl)-1H-quinazoline-2,4-dione] | 0.028 (≈ 0.0888 µM)
21 | CCOC(=O)Nc1ccc2c(c1)c(=O)n(CCC1CCCCC1)c(=O)n2CC [Example 13c, Ethyl (3-(2-cyclohexylethyl)-1-ethyl-2,4-dioxo-1,2,3,4-tetrahydroquinazolin-6-yl)carbamate] | 5.23 (≈ 13.5 µM)
22 | CC[C@H]1CC[C@H](n2c(=O)[nH]c3ccc(N)cc3c2=O)CC1 [24 (trans), 6-Amino-3-(trans-4-ethyl-cyclohexyl)-1H-quinazoline-2,4-dione] | 0.035 (≈ 0.122 µM)
23 | CC(=O)Nc1ccc2[nH]c(=O)n(C3CCC(C)(C)CC3)c(=O)c2c1 [Example 52, N-(3-(4,4-dimethylcyclohexyl)-2,4-dioxo-1,2,3,4-tetrahydroquinazolin-6-yl)acetamide] | 0.058 (≈ 0.176 µM)
24 | CC(=O)Nc1ccc2[nH]c(=O)n([C@H]3CC[C@@H](C(C)C)CC3)c(=O)c2c1 [Example 47, N-(3-((1s,4s)-4-Isopropylcyclohexyl)-2,4-dioxo-1,2,3,4-tetrahydroquinazolin-6-yl)acetamide] | 0.087 (≈ 0.253 µM)
25 | CC(=O)Nc1ccc2[nH]c(=O)n(CCC3=CCCCC3)c(=O)c2c1 [Example 1c, N-[3-(2-Cyclohex-1-enyl-ethyl)-2,4-dioxo-1,2,3,4-tetrahydro-quinazolin-6-yl]-acetamide] | 0.692 (≈ 2.11 µM)
26 | CC(=O)Nc1cnc2[nH]c(=O)n([C@H]3CC[C@@H](C(C)(C)C)CC3)c(=O)c2c1 [Example 34, N-[3-(cis-4-tert-Butyl-cyclohexyl)-2,4-dioxo-1,2,3,4-tetrahydro-pyrido[2,3-d]pyrimidin-6-yl)-acetamide] | 0.36 (≈ 1 µM)
27 | CC(=O)Nc1ccc2[nH]c(=O)n(CCC3CCCC3)c(=O)c2c1 [Example 42, N-(3-(2-cyclopentylethyl)-2,4-dioxo-1,2,3,4-tetrahydroquinazolin-6-yl)acetamide] | 0.713 (≈ 2.26 µM)
28 | CC(=O)N(C)c1ccc2c(c1)c(=O)n(CCC1CCCCC1)c(=O)n2C [Example 11, N-(3-(2-cyclohexylethyl)-1-methyl-2,4-dioxo-1,2,3,4-tetrahydroquinazolin-6-yl)-N-methylacetamide] | 6.44 (≈ 18 µM)
29 | CC(=O)Nc1ccc2[nH]c(=O)n(C3CCC(C)CC3)c(=O)c2c1 (stereo not drawn) [Example 59, N-(3-(4-methylcyclohexyl)-2,4-dioxo-1,2,3,4-tetrahydroquinazolin-6-yl)acetamide] | 0.329 (≈ 1.04 µM)
30 | CC(C)(C)C(=O)Nc1ccc2[nH]c(=O)n(CCC3CCCCC3)c(=O)c2c1 [Example 15b, N-(3-(2-cyclohexylethyl)-2,4-dioxo-1,2,3,4-tetrahydroquinazolin-6-yl)pivalamide] | 2.64 (≈ 7.11 µM)
31 | CC(C)C1CCC(n2c(=O)[nH]c3ccc(N)cc3c2=O)CC1 (racemic) [25 (rac), 6-Amino-3-(4-isopropylcyclohexyl)-1H-quinazoline-2,4-dione] | 0.028 (≈ 0.0929 µM)
32 | CCCCCCn1c(=O)[nH]c2ccc(NC(C)=O)cc2c1=O [Example 41, N-(3-hexyl-2,4-dioxo-1,2,3,4-tetrahydroquinazolin-6-yl)acetamide] | 0.881 (≈ 2.9 µM)
33 | CC(C)(C)C1CCC(n2c(=O)[nH]c3ccc(-c4ccncc4)cc3c2=O)CC1 (stereo not drawn) [Example 21c, 3-(4-(tert-butyl)cyclohexyl)-6-(pyridin-4-yl)quinazoline-2,4(1H,3H)-dione] | 0.892 (≈ 2.36 µM)
34 | CC(=O)Nc1ccc2[nH]c(=O)n(C3CCCCCC3)c(=O)c2c1 [Example 46, N-(3-Cycloheptyl-2,4-dioxo-1,2,3,4-tetrahydro-quinazolin-6-yl)acetamide] | 0.661 (≈ 2.1 µM)
35 | CC(=O)Nc1ccc2[nH]c(=O)n(CCCN3CCOCC3)c(=O)c2c1 [Example 40, N-(3-(3-Morpholinopropyl)-2,4-dioxo-1,2,3,4-tetrahydroquinazolin-6-yl)acetamide] | 55.3 (≈ 160 µM)

same assay, conditions: trypomastigotes in rat skeletal myoblasts (L-6 cells), 96 h incubation, CPRG/Nonidet read at 540 nm

Row | SMILES | Activity (IC50) [µg/mL]
36 | CC(C)[C@H]1CC[C@H](n2c(=O)[nH]c3ccc(N)cc3c2=O)CC1 [25 (trans), 6-Amino-3-((1 r,4r)-4-isopropylcyclohexyl)quinazoline-2,4(1H,3H)-dione] | 0.008

Reference: patent US20170114029A1, “TREATMENT OF CHAGAS DISEASE” (UNIVERSITY OF DUNDEE, priority 2014, published 2017)
